Assay results from patent EP0739894A1, “THIAZOLINE DERIVATIVE” (TAISHO PHARMACEUTICAL CO. LTD, priority 1994, dated 1995).
Values after ≈ are worked out from the molar mass of the structure shown.

How the values were obtained:
[1] = Solubility test in Britton-Robinson buffered solution, HPLC; type: physicochemical; conditions: britton-robinson buffer, aqueous buffer; Britton - Robinson broad buffered solution pH 4, ionic strength 0.125, 25°C
Description: (§1) Solubility and stability tests were carried out according to the method of R.H. Blythe et al [J. Pharm. Sci., vol. 66, page 785 (1977)].
A Britton - Robinson broad buffered solution (pH 4) was prepared, and adjusted to 0.125 of the ionic strength by adding sodium chloride. An excess amount of Compound 3 was added to the resulting solution and dissolved with heating, and then after stirring at 25°C for a desired time, the solubility which became constant was measured by HPLC under the following conditions. • Column : TSK-Gel, ODS-80TM, 4φ × 150 mm • Column temperature : 50°C • Mobile phase : Water : CH3CN : SDS : phosphoric acid = 500:500:3:1 • Detection wave length : 246 nm • Flow rate : 1.0 ml/min. • Injection amount : 10 µl

blood platelet = test: Human in vitro blood platelet aggregation inhibition test (ADP-induced, PRP); type: cell-based; conditions: 0.05 h
Description: Citrated blood (the volume ratio of 3.13 % sodium citrate solution and blood is 1:9) was collected from the cubital vein of a healthy human who had not received any drugs known to affect the function of blood platelet within 2 weeks prior to starting the test, and centrifuged at 120 x g at room temperature for 15 minutes. The resulting supernatant was separated to give platelet rich plasma (PRP), the remaining precipitate was further centrifuged at 1500 x g for 10 minutes, and the resulting supernatant was separated to give platelet poor plasma (PPP).
The blood platelet counts of PRP were adjusted to 50 ∼ 60 × 10^4/µl by diluting with PPP.
Blood platelet aggregation was determined according to the method of Born G.V.R., [Nature, vol. 194, page 927 (1962)] using adenosine diphosphate (produced by Sigma Co.; hereinafter referred to as "ADP") as an aggregation-inducing substance. That is, a solution of the compound of Formula (I) as a test drug in dimethyl sulfoxide was adjusted to the desired concentration with a physiological saline solution. 25 µl of the solution was added to 250 µl of PRP and incubated at 37°C for 3 minutes, and 25 µl of ADP (final concentration : 7 µM) was added thereto. […]

[2] = Stability test in phosphate buffer, decomposition rate constants extrapolated to 25°C; type: physicochemical; conditions: phosphate buffer adjusted to pH 4.0, 20 µg/ml; estimated from rate constants of decomposition at 100°C and 65°C
Description: as §1
A phosphate buffer (pH 7) (0.1M disodium hydrogenphosphate + 0.1M sodium dihydrogenphosphate) was prepared, and adjusted to pH 4.0 with phosphoric acid. Compound 3 was added to the buffered solution at the concentration of 20 µg/ml, and which was used as a test solution. The content of Compound 3 in the test solution stored at 100°C and 65°C respectively was determined, and the rate constant of decomposition at each temperature was calculated. As a result, it was estimated that the term for remaining a 95% content of Compound 3 at 25°C was 17.6 years.

In the case of Cc1c(C(=O)NCCC(=O)O)sc(=NC(=O)c2ccc(C(=N)N3CCN(c4ccccn4)CC3)cc2)n1C [Compound 3, N-(2-Carboxyethyl)-2-{4-[4-(pyridin-2-yl)piperadinylimidoyl]benzoylimino}-3,4-dimethyl-3H-thiazoline-5-carboxamide], the solubility [1] is reported as 4300 µg/mL (≈ 8.03 mM), the IC50 (blood platelet) is reported as 21.5 nM and the “term for remaining a 95% content at 25°C” value [2] is reported as 17.6 years.
